Data on two compounds can be found in EP3900733A1, “SRC KINASE ACTIVATORS AND ENG FUNCTION INHIBITORS AS ENHANCERS OF SKIN HOMEOSTASIS/REGENERATION AND HAIR GROWTH” (Derma Innovate S.L., priority 2020, dated 2021).

Square brackets hold non-standard residues; d marks the D form. Ends that are not written are not given here. pY = N[C@@H](Cc1ccc(OP(=O)(O)O)cc1)C(=O)O

Assay type in all cases: cell-based
Experiment [1] has as its system ex vivo grown human hair follicles. In words: Activation of ex vivo cultured hair follicles (hair bulb area image analysis, histology, Ki67). Particulars: for proliferation and differentiation of the hair bulb area (hair follicle activation): combination of PT (mALA and red light), 24 hours after treatments. The protocol: Human hair follicles were obtained from human scalp samples taken from the occipital skin of volunteer donors during a hair transplant procedure. Eligible patients provided written informed consent, and the Ethical committee of the Ramon y Cajal Hospital approved this procedure.
Follicular units (FUs) were dissected using scalpels under a magnifier, and the ones in resting phase (telogen) were selected. Those FUs were transferred to the laboratory and maintained at 4 °C until processed in Williams' medium E (Sigma) supplemented with 10x Penicilin/Streptomycin, 10x Aphotericin B, and 2 mM L-Glutamin (all from Gibco), 5 µg/ml Insulin, 5 µg/ml transferring, 20 pM T3 hormone, 0.083 µg/ml cholera toxin and 0.4 µg/ml hydrocortisone. FUs can be stored in complete Williams' medium at 4 °C for approximately 5 days without significant loss of the mini organ function. FU cultures were maintained at 37°C in a 5% CO2 humidified atmosphere.
Endogenous protoporphyrin IX (PpIX)-dependent photodynamic treatments (PT) were routinely performed on exponentially growing cells at 60% of confluence, as well as in ex vivo cultured hair follicles (HF) (Carrasco E et al. Methods 15:109, 2016; Calvo-Sanchez MI et al. Sci. Rep.9:4509, 2019). To that end, cells and HFs were incubated for 2-4 hours, normally 2 hours, with 0.1 mM of a PpIX metabolic precursor (typically, aminolevulinic acid ALA, or the ALA methylated derivative methyl aminolevulinate mALA) in the corresponding medium in the absence of serum or growth factors. Immediately, approximately 1 minute, after the incubation step the samples were further irradiated 2-15 min, normally between 8 and 10 minutes, with a red-light emitting diode source with an emission peak at 634 nm bandwidth, with a total light dose of 2-10 J/cm^2, normally 4 J/cm^2 (Carrasco E et al. Methods 15:109, 2016; Calvo-Sanchez MI et al. Sci. Rep.9:4509, 2019). […] Additionally, total controls in strict dark conditions (no PpIX precursor, no light) were evaluated for each biological model, although this control was not routinely used in experimental series since ambient light is an unavoidable contaminant, and the light control is the most adequate in this experimental design.
For the quantification of the number of cells in cell cultures after different treatments, a Bio-Rad TC20™ automated cell counter was used following the instructions of the manufacturer. […] Image acquisition was performed using a Nikon Eclipse Ci LED-fluorescence microscope using a 2x objective and a 0.55x Reduction Lens adapter coupled to a Jenoptik PROGRES GRYPHAX® SUBRA Super HD camera and suited Version 1.1.8.153 image software pack. […] Total hair bulb area in high resolution images of whole hair follicles was spotted and quantified using suited free FIJI software packs (https://fiji.sc/). […]

A further experiment relates to cSrc kinase. In words: cSrc Tyr419 phosphorylation by immunoblot in treated cell cultures. Particulars: mouse E14 embryonic stem cells; peptide 100 nM; Figure 1A. The protocol:
(§1) E14 cell line is a derivative of mice embryonic stem cells (ES) obtained from the Inner Cell Mass of 129/Ola mouse strain blastocyst. E14 cells were grown on 0,1% gelatin-coated flasks in GMEM supplemented with 10% FCS tested for stem cells, 0.1 mM mixture of Non Essential Amino acids (NEAA, composed by Glycine, L-Alanine, L-Asparagine, L-Aspartic Acid, L-Glutamic acid, L-Proline and L-Serine), 2 mM L-Glutamine, 1 mM sodium pyruvate, 0.05 mM β-mercaptoethanol, Penicilin/Streptomicin (100 U/ml / 100 µg/ml) and 2.5 µg/ml amphotericin B (all from Gibco) and 1,000 U/ml LIF (Millipore), and splitted 1:8 to 1:10 every 2-3 days using Trypsin-EDTA (Invitrogen) (Smith, 1991; Cambray et al, 2012). Cells were maintained at 37°C in a 5% CO2 humidified atmosphere. The medium was changed on alternative days.
(§2) Here the functional activation of the cSrc kinase has been specifically associated with the phosphorilation of the Tyr419 residue (or equivalent) of the cSrc protein (Espada J and Martin-Perez J. Int Rev Cell Mol Biol 331:82, 2017). […] The biological activity of each YEEI phosphopeptide batch was evaluated by immunoblot detection of cSrc-Tyr419 levels in protein extracts obtained from treated cell cultures (see Figure 1) […]
Background: Immunoblotting shows a protein as a band on a membrane.

Experiment [2] deals with mouse E14 embryonic stem cells. Nature of the experiment: Cell proliferation (automated cell counting), with or without phototreatment. Particulars: for enhancement of PT-induced cell proliferation: PT (mALA and red light) combined with YEEI phosphopeptide and/or S-Eng, 48 hours after irradiation. The protocol: as §1
Endogenous protoporphyrin IX (PpIX)-dependent photodynamic treatments (PT) were routinely performed on exponentially growing cells at 60% of confluence, as well as in ex vivo cultured hair follicles (HF) (Carrasco E et al. Methods 15:109, 2016; Calvo-Sanchez MI et al. Sci. Rep.9:4509, 2019). […] Additionally, total controls in strict dark conditions (no PpIX precursor, no light) were evaluated for each biological model, although this control was not routinely used in experimental series since ambient light is an unavoidable contaminant, and the light control is the most adequate in this experimental design.
as §2

Experiment [3] has as its system human primary skin fibroblasts. Described as above. The following applies: for enhancement of PT-induced cell proliferation: human primary fibroblasts, 48 hours after irradiation. The protocol: Primary cultures of human fibroblasts were obtained from normal human skin. Collection of skin biopsy punches, 4mm diameter, from volunteer donors was routinely performed in the Dermatology Service of the Ramon y Cajal University Hospital, Madrid, Spain, following the regulations of the hospital ethics committee for human research, eligible patients providing written informed consent.
Skin samples were transferred to the laboratory and maintained at 4 °C in DMEM medium (Gibco) with 10x Penicilin/Streptomycin and 10x Aphotericin B until processed, not exceeding 24h. Then, the subcutaneous layer was removed using scalpels, and skin biopsies were cut in small pieces of 1-4 mm^2. In order to obtain primary fibroblasts, skin pieces were incubated in 1mg/ml of collagenase A enzyme (Roche) solution for 4 hours at 37 °C, in mild agitation in order to help cell dissociation.
The supernatant containing the fibroblasts was vigorously pipetted and diluted in DMEM medium supplemented with 10% FCS, 2 mM L-Glutamine, Penicilin/Streptomicin (100 U/ml / 100 µg/ml) and 2.5 µg/ml amphotericin B and centrifuged for five minutes at 1500 RPM. The pellet was resuspended in complete DMEM medium and the fibroblasts were seeded in a maximum density of 1 million cells per ml using a 24 well plate and routinely grown at 37°C in a humidified atmosphere containing CO2 5%. 24 hours later, medium was removed to eliminate all detached cells. The cells were passaged when they reached 70-80% confluency, in order to prevent differentiation. The primary culture reached appropriate confluence after 8 to 10 days, and the derivative subcultures were splitted 1:4 once a week. After 10 to 20 passages, cells undergo senescence.
Endogenous protoporphyrin IX (PpIX)-dependent photodynamic treatments (PT) were routinely performed on exponentially growing cells at 60% of confluence, as well as in ex vivo cultured hair follicles (HF) (Carrasco E et al. Methods 15:109, 2016; Calvo-Sanchez MI et al. Sci. Rep.9:4509, 2019). To that end, cells and HFs were incubated for 2-4 hours, normally 2 hours, with 0.1 mM of a PpIX metabolic precursor (typically, aminolevulinic acid ALA, or the ALA methylated derivative methyl aminolevulinate mALA) in the corresponding medium in the absence of serum or growth factors. Immediately, approximately 1 minute, after the incubation step the samples were further irradiated 2-15 min, normally between 8 and 10 minutes, with a red-light emitting diode source with an emission peak at 634 nm bandwidth, with a total light dose of 2-10 J/cm^2, normally 4 J/cm^2 (Carrasco E et al. Methods 15:109, 2016; Calvo-Sanchez MI et al. Sci. Rep.9:4509, 2019). Immediately after irradiation, approx. 1 minute after, samples were washed in PBS, fresh medium was added, and were further routinely grown at 37°C in a humidified atmosphere containing CO2 5%. When required, activators of cSrc kinase or inhibitors of Eng function (see below) were added, alone or in combination, in the fresh medium used immediately after irradiation, and samples were subsequently incubated for the indicated times. […] Additionally, total controls in strict dark conditions (no PpIX precursor, no light) were evaluated for each biological model, although this control was not routinely used in experimental series since ambient light is an unavoidable contaminant, and the light control is the most adequate in this experimental design. […]

`COC(=O)CCC(=O)CN` [mALA, methyl aminolevulinate]: the “time after PT at which HF activation is evident” value in experiment [1] (PT using mALA and red light, compared to control, Figure 6) was found to be 5 days. Besides, the “time after treatment at which activation occurs” value in experiment [1] (photodynamic treatment with mALA and red light, Figures 6 and 7) is “approximately 5 days”.

As to “Glu-Pro-Gln-Tyr(PO3H2)-Glu-Glu-Ile-Pro-Ile-Tyr-Leu (EPQ[pY]EEIPIYL) [YEEI phosphopeptide]”, in the experiment on cSrc kinase, the “Tyr419 cSRC phosphorilation” value is given as “induced”. The “induction of cell proliferation” value in experiment [2] (48 hours after treatments, peptide alone, Figure 1B) is listed as “statistically significant induction”; in experiment [3] (human primary skin fibroblasts, 48 hours after treatments, peptide alone, Figure 1B), “statistically significant induction”. Moreover, the “enhancement of PT-induced cell proliferation” value was “significantly enhanced” in experiment [2] (Figure 3); “markedly enhanced” in experiment [2] (Figure 3, listed as YEEI peptide); “significantly enhanced” in experiment [3] (PT (mALA and red light) combined with YEEI phosphopeptide and/or Apt1 or Apt2, Figure 5); “markedly increased” in experiment [3] (PT (mALA and red light) combined with YEEI phosphopeptide and/or Apt1 or Apt2, Figure 5, listed as YEEI peptide); “significantly enhanced” in experiment [3] (PT (mALA and red light) combined with YEEI phosphopeptide and/or siRNA of SEQ ID NO 2, Figure 4); “markedly increased” in experiment [3] (PT (mALA and red light) combined with YEEI phosphopeptide and/or siRNA of SEQ ID NO 2, Figure 4, listed as YEEI peptide). Besides, the “proliferation and differentiation of the hair bulb area (hair follicle activation)” value is given as “significantly promotes” in experiment [1] (YEEI phosphopeptide and Apt1 or Apt2, Figure 9); “significantly promotes” in experiment [1] (YEEI phosphopeptide and siRNA of SEQ ID NO 2, Figure 8).
